Measurements from patent US20220395467A1, “THERAPEUTIC PROTEIN-BASED NANOPARTICLES AND METHODS FOR MAKING THE SAME” (THE REGENTS OF THE UNIVERSITY OF MICHIGAN, priority 2019, published 2022).

Tested on: B16F10-OVA melanoma
Test: Therapeutic efficacy in murine model of B16F10-OVA melanoma
Format: in vivo, C57BL/6 mice
Experimental: FIGS. 9A-9B. FIGS. 9A-9B show therapeutic effect of OVA pNPs. In FIG. 9A, a vaccine doses and regimen for a murine model is shown. […] C57BL/6 mice are inoculated subcutaneously with 1×10^5 B 16F10-OVA cells on day 0. On days 7 and 14, mice are treated with indicated formulations (OVA pNP, soluble OVA, PBS) containing 10 μg/dose OVA and 15 μg/dose CpG (100 μL dose). Data represent mean±SEM (n=10). Groups are compared using Kaplan-Meier estimator analysis. P<0.05 is considered statistically different (*P<0.05). P>0.05 is considered not significant.
Therapeutic efficacy of pNPs in a model of melanoma. Encouraged by the fact that OVA pNPs with 10% PEG/OVA ratio result in increased OT-I CD8+ cell proliferation in vitro, improved uptake by APCs (both in vitro and in vivo), and enhanced humoral immune response in vivo, a murine model of B16F10-OVA melanoma was employed to evaluate the therapeutic efficacy of pNPs with a PEG/OVA ratio of 10% compared to solute OVA. […] Following the regimen shown in FIG. 9A, C57BL/6 mice (10 mice/treatment group) were inoculated with 1×10^5 B16F10-OVA cells in the SC flank on day 0. […] A second treatment was given on day 14. Mice were euthanized after their tumors reached 15 mm in any dimension. […] More than 50% of mice treated with solute OVA were euthanized due to large tumor burden on day 20, and 100% of the mice were euthanized on day 21.

[1] = treated days 7 and 14, 10 μg OVA + 15 μg CpG, n=10

Ovalbumin [soluble OVA, soluble ovalbumin antigen used as control]
animal survival (solute OVA vs no treatment control, pNPs until endpoint day 24): slightly better survival | mice euthanized due to large tumor burden on day 20 [1]: More than 50% | mice euthanized on day 21 [1]: 100%
